Data: patent US8642532B2, “Excipients for protein stabilization” (priority 2007, dated 2014)
One block for each compound: values may come before it.

How the values were obtained:
BSA [1] = molecular target: T1, BSA (Bos taurus, UniProt P02769); assay: Screening of excipients at pH 6.2 for capacity to deter BSA from forming a gel; format: physicochemical, Bovine; conditions: for Results, 65° C., 60 minutes: BSA 175 mg/ml
T1 construct: BSA stock solution (35%, in water, 0.85% sodium chloride, from Sigma); purchased Sigma / Sigma Aldrich
T1 sequence (P02769 25-607): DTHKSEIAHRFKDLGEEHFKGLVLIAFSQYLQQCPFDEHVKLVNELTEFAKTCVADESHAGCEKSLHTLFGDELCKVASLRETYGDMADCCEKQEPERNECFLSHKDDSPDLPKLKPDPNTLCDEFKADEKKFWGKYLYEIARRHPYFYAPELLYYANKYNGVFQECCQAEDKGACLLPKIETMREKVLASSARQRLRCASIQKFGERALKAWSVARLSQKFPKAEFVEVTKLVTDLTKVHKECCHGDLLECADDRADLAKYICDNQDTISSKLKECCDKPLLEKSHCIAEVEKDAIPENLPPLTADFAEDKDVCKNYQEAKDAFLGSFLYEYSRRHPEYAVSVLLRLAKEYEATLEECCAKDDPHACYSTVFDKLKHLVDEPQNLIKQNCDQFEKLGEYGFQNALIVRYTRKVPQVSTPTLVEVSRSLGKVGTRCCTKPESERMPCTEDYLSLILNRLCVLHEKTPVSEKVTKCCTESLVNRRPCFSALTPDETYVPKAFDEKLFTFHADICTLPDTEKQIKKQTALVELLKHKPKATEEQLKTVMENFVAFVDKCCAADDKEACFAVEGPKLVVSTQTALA
Procedure: Various excipients were tested for their capacity to deter BSA from forming a gel, using sucrose as a reference, in malonic acid buffer (25 mM), incubated at 65° C. for 60 minutes. The excipients used were sucrose, 4-formylbenzene-1,3-disulfonic acid, 4-formylbenzoic acid, phenylglyoxylic acid, glyoxylic acid. (Tables 2 through 6).

BSA [2] = molecular target: T1, BSA; assay: Reduction of aggregation of BSA induced by t-butanol, SEC HPLC; format: physicochemical, Bovine; conditions: BSA precipitated with t-butanol, re-dissolved in PBS
Procedure: To three separate test tubes containing 0.050 ml of BSA (35%, 0.85% sodium chloride) and 0.050 ml of phosphate buffer (50 mM, pH 7.4), were respectively added 0.010 ml of water, 0.010 mll of 2-formylbenzenesulfonic acid sodium salt (75 mg/ml, pH 8), and 0.010 ml of pyridoxal phosphate (100 mg/ml, pH 7.4). To each of the three tubes were then added 0.50 ml of PEG solution (75%, molecular weight 3400) followed by centrifugation to give some precipitate. The three supernatants were collected to have BSA at saturated concentrations, and to them were separately added 0.50 ml of t-butanol to have more BSA precipitates after centrifugation. The crops of precipitates from t-butanol were washed with t-butanol twice (0.75 ml each) and re-dissolved in PBS buffer (50 mM sodium phosphate, pH 7.4, 0.85% sodium chloride) for SEC HPLC analysis. Plain BSA produced about 75% of aggregates, the sample with 2-formylbenzenesulfonic acid produced about 60% of aggregates, the sample with pyridoxal phosphate produced less than 50% of aggregates.

[3] = molecular target: T2, Bovine Serum Albumin (BSA) (Bos taurus, UniProt P02769); assay: Inhibition of thermal aggregation of BSA, SEC HPLC; format: physicochemical; conditions: 65° C., BSA 1.75 mg/ml, excipient 11.25 mg/ml, pH 7.4
T2 construct: BSA stock solution (35%, in water, 0.85% sodium chloride, from Sigma); purchased Sigma / Sigma Aldrich
T2 sequence (P02769 25-607): as above
Procedure: A 0.050 ml of BSA stock solution (35%, in water, 0.85% sodium chloride, from Sigma) was diluted into 0.450 ml of sodium phosphate buffer (50 mM, pH 7.4, 0.85% sodium chloride) to give a BSA solution at concentration of 35 mg/ml. An excipient, 2-formylbenzenesulfonic acid, sodium salt (Aldrich, 75%), was made into a solution in water (HPLC grade) at concentration of 75 mg/ml, and its pH was adjusted to 8 using dilute hydrochloric acid.
An aliquot of 0.050 ml of the above stock BSA solution (35 mg/ml) was diluted into PBS buffer (pH 7.4, 0.80 ml), and 0.15 ml of the excipient solution was added to it to make a BSA concentration of 1.75 mg/ml, and the excipient of 11.25 mg/ml. A separate sample was prepared without the addition of the excipient. Both samples in capped glass tubes are incubated at 65° C. […] […] SEC column: TSK gel G3000 SW, 7.5×300 mm, Tosoh Biosciences, part number 05789. Mobile phase: 50 mM phosphate buffer, pH 7.4, 0.85% sodium chloride. Flow rate: 1.0 ml/min. Detection: 280 nm Instrument: BuckChrom BLC-20.

[4] = molecular target: T3, Myoglobin (Horse Skeleton) (Equus caballus, UniProt P68082); assay: Inhibition of myoglobin thermal aggregation at 65° C.; format: physicochemical
T3 construct: Myoglobin (Horse Skeleton, Sigma) was made into a stock solution (10 mg/ml); purchased Sigma; host or cells: horse skeletal muscle ('Horse Skeleton' [sic])
T3 sequence (P68082 whole entry): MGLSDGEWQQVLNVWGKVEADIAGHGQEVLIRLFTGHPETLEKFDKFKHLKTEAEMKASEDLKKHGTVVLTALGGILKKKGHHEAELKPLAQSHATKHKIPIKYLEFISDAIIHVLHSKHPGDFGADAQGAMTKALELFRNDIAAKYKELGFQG
Procedure: Myoglobin (Horse Skeleton, Sigma) was made into a stock solution (10 mg/ml) in sodium bicarbonate buffer (0.1 M, pH 9.0). This solution (0.5 ml) was then mixed with various excipient stock solutions (0.10 ml) to provide a series of test samples with the same final myoglobin concentration and varying excipient concentrations ([X]). Then the samples in sealed test tubes were inserted into wells of heating block that was pre-set at 65° C., and the incubation was continued over a period of time, to observe the formation of fibrillation precipitates (PPT).

Humulin R (zinc insulin) = molecular target: T4, Humulin R (zinc insulin) (Homo sapiens, UniProt P01308); assay: Inhibition of zinc insulin fibrillation by glyoxylic acid, rotator at room temperature; format: physicochemical; conditions: containing glyoxylic acid, conditions as in Example 11, rotator
T4 construct: purchased
T4 sequence (P01308 25-54 limits assumed): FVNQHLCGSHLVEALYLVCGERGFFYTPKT
T4 sequence (P01308 90-110 limits assumed): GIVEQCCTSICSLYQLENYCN
Procedure: A solution of zinc-free recombinant human insulin was prepared in phosphate buffer (50 mM, pH 7.0, no sodium chloride) at concentration of 1.0 mg/ml, containing 0 and 20 mM glyoxylic acid. Commercial NovoRapid (Novo Nordisk, 100 IU/ml) was diluted with phosphate buffer to 25 IU/ml, with and without glyoxylic acid (0 or 20 mM). Humalog 25 (100 IU/ml, Eli Lilly) was centrifuged to collect the supernatant, and the LisPro concentration was assumed to be 25 IU/ml. Then two LisPro samples were made with and without glyoxylic acid (0 or 20 mM) with assumed final LisPro concentration of 20 IU/ml. Each of the samples (1.0 ml) was transferred into a capped 10 ml test tube, and loaded onto a rotator that was set at 12 rotations per minute at room temperature. […] Conditions were as in Example 11 above, but using commercial Humulin R (100 IU/ml).

[5] = molecular target: T5, zinc-free recombinant human insulin, NovoRapid, LisPro (Homo sapiens, UniProt P01308); assay: Inhibition of insulin fibrillation by glyoxylic acid, rotator at room temperature; format: physicochemical; conditions: 20 mM glyoxylic acid, phosphate buffer pH 7.0, room temperature, rotator 12 rotations per minute
T5 construct: A solution of zinc-free recombinant human insulin was prepared in phosphate buffer
T5 sequence (P01308 25-54 limits assumed): as the sequence (P01308 25-54 limits assumed) above
Procedure: A solution of zinc-free recombinant human insulin was prepared in phosphate buffer (50 mM, pH 7.0, no sodium chloride) at concentration of 1.0 mg/ml, containing 0 and 20 mM glyoxylic acid. Commercial NovoRapid (Novo Nordisk, 100 IU/ml) was diluted with phosphate buffer to 25 IU/ml, with and without glyoxylic acid (0 or 20 mM). Humalog 25 (100 IU/ml, Eli Lilly) was centrifuged to collect the supernatant, and the LisPro concentration was assumed to be 25 IU/ml. Then two LisPro samples were made with and without glyoxylic acid (0 or 20 mM) with assumed final LisPro concentration of 20 IU/ml. Each of the samples (1.0 ml) was transferred into a capped 10 ml test tube, and loaded onto a rotator that was set at 12 rotations per minute at room temperature.

BSA [6] = molecular target: T1, BSA; assay: Inhibition of BSA thermal aggregation (gel/solid formation) at 65° C. over 60 min, phosphate buffer; format: physicochemical, Bovine
Procedure: […] All samples were inserted into wells of heating block that was preset at 65° C.
Ten microliter of the above clear solutions were each diluted with 1.0 ml of phosphate buffer (pH 7.4), and a reference sample of BSA solutions of 2.5 mg/ml was prepared in the same buffer. Small aliquot of 0.10 ml of all the five diluted samples were analyzed on SEC HPLC (TSK gel G 3000 SW, 5 mm×300 mm), eluted with 50 mM sodium phosphate buffer (pH 7.4) containing 0.85% sodium chloride at flow rate of 1.0 ml/min monitored at 280 nm.

[7] = malonate 25 mM pH 6.2, excipient 9.4 mg/ml
[8] = malonate 25 mM pH 6.2, excipient 18.8 mg/ml
[9] = malonate 25 mM pH 6.2, excipient 37.5 mg/ml
[10] = pH 9.0, 5 weeks, one cell for all [X] of the excipient
[11] = pH 9.0, 1 days, one cell for all [X] of the excipient
[12] = pH 9.0, 2 days, one cell for all [X] of the excipient
[13] = pH 9.0, 4 days, one cell for all [X] of the excipient

Results, 65° C., 60 minutes (BSA [1]; [7]): Clear | Results, 65° C., 60 minutes (BSA [1]; [8]): Clear | Results, 65° C., 60 minutes (BSA [1]; [9]): Clear
Structure (SMILES): O=Cc1ccc(C(=O)O)cc1 [4-Formylbenzoic acid]

Formation of fibrillation precipitates (PPT) [4, 10]: Precipitate | Formation of fibrillation precipitates (PPT) [4, 11]: Precipitate | Formation of fibrillation precipitates (PPT) [4, 12]: Precipitate | Formation of fibrillation precipitates (PPT) [4, 13]: Precipitate
Structure (SMILES): O=Cc1cc(C(=O)O)ccc1O [3-Formyl-4-hydroxylbenzoic Acid]

Formation of fibrillation precipitates (PPT) [4, 10]: Precipitate | Formation of fibrillation precipitates (PPT) ([4]; pH 9.0, 1 days, higher part of [X] 16.7/41.7/83.3 mM (cell span not shown)): Clear | Formation of fibrillation precipitates (PPT) ([4]; pH 9.0, 1 days, lower part of [X] 16.7/41.7/83.3 mM (cell span not shown)): PPT | Formation of fibrillation precipitates (PPT) ([4]; pH 9.0, 2 days, higher part of [X] 16.7/41.7/83.3 mM (cell span not shown)): Clear | Formation of fibrillation precipitates (PPT) ([4]; pH 9.0, 2 days, lower part of [X] 16.7/41.7/83.3 mM (cell span not shown)): PPT | Formation of fibrillation precipitates (PPT) [4, 13]: Precipitate | Results, 65° C., 60 minutes (BSA [1]; malonate 25 mM pH 6.2, excipient 5.8 mg/ml): Clear | Results, 65° C., 60 minutes (BSA [1]; malonate 25 mM pH 6.2, excipient 11.5 mg/ml): Clear | Results, 65° C., 60 minutes (BSA [1]; malonate 25 mM pH 6.2, excipient 23 mg/ml): Clear
Structure (SMILES): O=CC(=O)O [Glyoxylic Acid]
Appearance of Humulin R solution (fibrillation) (Humulin R (zinc insulin)): remained clear six days before turning cloudy | Appearance of insulin solution (fibrillation) [5]: stayed in clear solutions beyond four weeks

The remaining lines, values behind:

Structure (SMILES): O=Cc1ccccc1S(=O)(=O)[O-].[Na+] [2-formylbenzenesulfonic acid, 2-formylbenzenesulfonic acid, sodium salt]
Aggregates produced (BSA [2]): about 60% | BSA aggregation on SEC HPLC ([3]; 40 minutes): no significant change of BSA | BSA aggregation on SEC HPLC ([3]; 60 minutes): aggregates started to show up in an insignificant amount

Structure (SMILES): O=C(O)C(=O)c1ccccc1 [Phenylglyoxylic Acid]
Formation of fibrillation precipitates (PPT) [4, 10]: Precipitate | Formation of fibrillation precipitates (PPT) [4, 11]: Precipitate (PPT) | Formation of fibrillation precipitates (PPT) [4, 12]: Precipitate | Formation of fibrillation precipitates (PPT) [4, 13]: Precipitate | Results, 65° C., 60 minutes (BSA [1]; [7]): Clear | Results, 65° C., 60 minutes (BSA [1]; [8]): Clear | Results, 65° C., 60 minutes (BSA [1]; [9]): Clear

Structure (SMILES): O=Cc1ccc(S(=O)(=O)O)cc1S(=O)(=O)O [4-Formyl-1,3-benzenedisulfonic Acid, 4-Formyl-1,3-benzenedisulfonic acid]
Rank in deterring myoglobin from fibrillation (summary in words) ([4]; pH 9.0): best among this group | Formation of fibrillation precipitates (PPT) [4, 10]: Clear | Formation of fibrillation precipitates (PPT) [4, 11]: Clear | Formation of fibrillation precipitates (PPT) [4, 12]: Clear | Formation of fibrillation precipitates (PPT) [4, 13]: Clear | Results, 65° C., 60 minutes (BSA [6]; BSA 262.5 mg/ml, phosphate 25 mM pH 7.4, excipient 12.5 mg/ml): Clear | Results, 65° C., 60 minutes (BSA [6]; BSA 262.5 mg/ml, phosphate 25 mM pH 7.4, excipient 12.5 mg/ml, listed as 4-Formyl-1,3-benzenedisulfonic acid): prevents BSA (262 mg/ml) from turning into gellified solid | Results, 65° C., 60 minutes (BSA [6]; BSA 262.5 mg/ml, phosphate 25 mM pH 7.4, excipient 25 mg/ml): Clear | Results, 65° C., 60 minutes (BSA [6]; BSA 262.5 mg/ml, phosphate 25 mM pH 7.4, excipient 50 mg/ml): Clear | Results, 65° C., 60 minutes (BSA [6]; repeated at pH 6.8, excipient 12.5 mg/ml): remained as clear solution | Results, 65° C., 60 minutes (BSA [1]; malonate 25 mM pH 6.2, excipient 7.1 mg/ml): Clear | Results, 65° C., 60 minutes (BSA [1]; malonate 25 mM pH 6.2, excipient 14.4 mg/ml): Clear | Results, 65° C., 60 minutes (BSA [1]; malonate 25 mM pH 6.2, excipient 28.8 mg/ml): Clear

Structure (SMILES): OC[C@H]1O[C@@](CO)(O[C@H]2O[C@H](CO)[C@@H](O)[C@H](O)[C@H]2O)[C@@H](O)[C@@H]1O [Sucrose, sucrose, reference compound]
Results, 65° C., 60 minutes (BSA [1]; malonate 25 mM pH 6.2, excipient 75 mg/ml): Pale Gel | Results, 65° C., 60 minutes (BSA [1]; malonate 25 mM pH 6.2, excipient 125 mg/ml): Pale Gel | Results, 65° C., 60 minutes (BSA [1]; malonate 25 mM pH 6.2, excipient 175 mg/ml): Gel | Power to prevent BSA from turning into gel or solid (summary in words) (BSA [1]; pH 6.2, 65° C., 60 minutes, all concentrations tested): does not have strong power to prevent BSA from turning into gel or solid
